Experimental data as given in ChEMBL document CHEMBL3875218, “Bifunctional conjugates with potent inhibitory activity towards cyclooxygenase and histone deacetylase” (Bioorg Med Chem, 2017).

Experiments:
Histone deacetylase 1 = Histone deacetylase 1 (Homo sapiens, UniProt Q13547); test: Inhibition of HDAC1 (unknown origin) after 24 hrs by SAMDI mass spectroscopic analysis
Histone deacetylase 2 [1] = target: T1, Histone deacetylase 2 (Homo sapiens, UniProt Q92769); test: Inhibition of HDAC2 (unknown origin) after 24 hrs by SAMDI mass spectroscopic analysis
T1 sequence (Q92769 whole entry): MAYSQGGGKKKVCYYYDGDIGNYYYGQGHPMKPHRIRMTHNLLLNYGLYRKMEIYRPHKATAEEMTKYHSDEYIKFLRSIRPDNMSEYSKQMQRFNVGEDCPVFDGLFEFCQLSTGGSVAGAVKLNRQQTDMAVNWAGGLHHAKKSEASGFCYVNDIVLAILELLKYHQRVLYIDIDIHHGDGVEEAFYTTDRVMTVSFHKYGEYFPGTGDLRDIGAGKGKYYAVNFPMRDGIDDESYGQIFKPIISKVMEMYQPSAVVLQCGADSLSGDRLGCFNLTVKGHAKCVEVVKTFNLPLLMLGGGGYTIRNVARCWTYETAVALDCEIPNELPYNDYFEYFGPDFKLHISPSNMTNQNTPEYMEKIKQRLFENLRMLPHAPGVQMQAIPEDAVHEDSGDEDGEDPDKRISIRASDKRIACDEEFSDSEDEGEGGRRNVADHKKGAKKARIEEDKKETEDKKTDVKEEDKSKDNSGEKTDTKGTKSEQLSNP

Histone deacetylase 3 = Histone deacetylase 3 (Homo sapiens, UniProt O15379); test: Inhibition of HDAC3 (unknown origin) after 5 hrs by SAMDI mass spectroscopic analysis
Histone deacetylase 3, sequence (O15379 whole entry): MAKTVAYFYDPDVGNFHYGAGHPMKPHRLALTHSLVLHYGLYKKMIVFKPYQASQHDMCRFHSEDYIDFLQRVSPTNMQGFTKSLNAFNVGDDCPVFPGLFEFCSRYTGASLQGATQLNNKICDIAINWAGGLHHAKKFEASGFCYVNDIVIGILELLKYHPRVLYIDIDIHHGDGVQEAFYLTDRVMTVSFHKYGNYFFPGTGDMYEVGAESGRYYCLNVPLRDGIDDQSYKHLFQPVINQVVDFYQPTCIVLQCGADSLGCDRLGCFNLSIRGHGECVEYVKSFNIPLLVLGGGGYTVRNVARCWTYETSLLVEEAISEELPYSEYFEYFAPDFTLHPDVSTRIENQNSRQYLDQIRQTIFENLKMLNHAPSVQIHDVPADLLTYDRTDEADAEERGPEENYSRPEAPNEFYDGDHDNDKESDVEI

[2] = target: T2, Protein deacetylase HDAC6 (Homo sapiens, UniProt Q9UBN7); test: Inhibition of HDAC6 (unknown origin) after 20 hrs by SAMDI mass spectroscopic analysis
T2 sequence (Q9UBN7 whole entry): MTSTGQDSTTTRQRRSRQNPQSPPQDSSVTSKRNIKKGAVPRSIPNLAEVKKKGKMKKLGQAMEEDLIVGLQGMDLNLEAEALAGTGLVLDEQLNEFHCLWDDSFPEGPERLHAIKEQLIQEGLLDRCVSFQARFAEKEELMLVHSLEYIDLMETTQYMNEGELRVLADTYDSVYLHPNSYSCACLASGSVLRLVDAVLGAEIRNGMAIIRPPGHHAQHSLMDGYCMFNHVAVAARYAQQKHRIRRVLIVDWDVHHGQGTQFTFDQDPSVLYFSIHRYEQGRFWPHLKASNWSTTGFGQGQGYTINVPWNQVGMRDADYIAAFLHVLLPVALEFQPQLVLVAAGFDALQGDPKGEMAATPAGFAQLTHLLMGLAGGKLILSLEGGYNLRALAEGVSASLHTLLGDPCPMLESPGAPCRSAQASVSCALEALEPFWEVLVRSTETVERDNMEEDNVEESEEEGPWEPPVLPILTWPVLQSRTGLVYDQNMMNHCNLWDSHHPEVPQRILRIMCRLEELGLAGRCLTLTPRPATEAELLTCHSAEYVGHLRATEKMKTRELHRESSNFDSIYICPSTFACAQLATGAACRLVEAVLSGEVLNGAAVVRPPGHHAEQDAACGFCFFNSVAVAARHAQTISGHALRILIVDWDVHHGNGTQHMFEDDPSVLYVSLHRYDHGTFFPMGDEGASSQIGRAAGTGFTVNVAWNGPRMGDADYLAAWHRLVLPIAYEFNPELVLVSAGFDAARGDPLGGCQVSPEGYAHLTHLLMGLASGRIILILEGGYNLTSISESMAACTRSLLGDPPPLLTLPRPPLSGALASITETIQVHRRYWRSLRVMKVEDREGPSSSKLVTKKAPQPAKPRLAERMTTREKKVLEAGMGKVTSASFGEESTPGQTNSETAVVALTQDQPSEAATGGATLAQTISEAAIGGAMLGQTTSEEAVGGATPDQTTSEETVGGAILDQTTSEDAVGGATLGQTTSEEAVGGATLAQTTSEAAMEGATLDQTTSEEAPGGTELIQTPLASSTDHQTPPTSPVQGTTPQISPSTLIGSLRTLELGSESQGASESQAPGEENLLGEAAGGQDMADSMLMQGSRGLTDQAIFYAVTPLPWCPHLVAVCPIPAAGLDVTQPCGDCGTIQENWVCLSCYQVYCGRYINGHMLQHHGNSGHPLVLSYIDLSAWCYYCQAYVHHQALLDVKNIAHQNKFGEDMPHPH

Histone deacetylase 8 = target: T3, Histone deacetylase 8 (Homo sapiens, UniProt Q9BY41); test: Inhibition of HDAC8 (unknown origin) after 2.5 hrs by SAMDI mass spectroscopic analysis
T3 sequence (Q9BY41 whole entry): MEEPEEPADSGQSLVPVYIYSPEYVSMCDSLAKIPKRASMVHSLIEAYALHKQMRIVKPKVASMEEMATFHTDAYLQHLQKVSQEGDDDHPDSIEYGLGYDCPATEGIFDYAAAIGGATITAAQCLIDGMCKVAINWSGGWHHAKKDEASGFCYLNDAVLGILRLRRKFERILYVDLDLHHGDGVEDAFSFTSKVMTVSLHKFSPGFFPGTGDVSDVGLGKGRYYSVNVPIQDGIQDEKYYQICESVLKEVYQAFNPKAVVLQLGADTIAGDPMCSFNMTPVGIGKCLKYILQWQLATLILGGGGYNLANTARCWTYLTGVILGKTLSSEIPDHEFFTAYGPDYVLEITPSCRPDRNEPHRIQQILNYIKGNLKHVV

[3] = target: T4, Prostaglandin G/H synthase 1 (Ovis aries) (UniProt P05979); test: Inhibition of sheep COX1 at 10 uM using arachidonic acid as substrate preincubated for 15 mins followed by substrate addition for 2 mins by Cayman based fluorescence assay
T4 sequence (whole entry): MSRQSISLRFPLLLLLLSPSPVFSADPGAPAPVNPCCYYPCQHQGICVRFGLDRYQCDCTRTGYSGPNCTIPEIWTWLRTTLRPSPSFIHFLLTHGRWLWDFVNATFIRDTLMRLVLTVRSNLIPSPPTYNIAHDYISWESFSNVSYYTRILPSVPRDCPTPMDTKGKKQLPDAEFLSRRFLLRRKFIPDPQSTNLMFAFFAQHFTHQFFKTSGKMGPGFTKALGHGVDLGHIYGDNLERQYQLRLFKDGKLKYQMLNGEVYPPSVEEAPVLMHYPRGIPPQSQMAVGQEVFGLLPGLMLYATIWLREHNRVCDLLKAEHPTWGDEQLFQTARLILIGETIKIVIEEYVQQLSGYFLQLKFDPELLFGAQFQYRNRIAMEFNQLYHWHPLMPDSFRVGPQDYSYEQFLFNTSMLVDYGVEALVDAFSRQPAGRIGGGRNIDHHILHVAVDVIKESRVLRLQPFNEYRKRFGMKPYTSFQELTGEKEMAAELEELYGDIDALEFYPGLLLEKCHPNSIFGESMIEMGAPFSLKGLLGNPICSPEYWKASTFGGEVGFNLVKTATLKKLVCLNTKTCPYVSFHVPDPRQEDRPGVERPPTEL

[4] = target: T5, Prostaglandin G/H synthase 2 (Homo sapiens) (UniProt P35354); test: Inhibition of recombinant human COX2 at 10 uM using arachidonic acid as substrate preincubated for 15 mins followed by substrate addition for 2 mins by Cayman based fluorescence assay
T5 sequence (whole entry): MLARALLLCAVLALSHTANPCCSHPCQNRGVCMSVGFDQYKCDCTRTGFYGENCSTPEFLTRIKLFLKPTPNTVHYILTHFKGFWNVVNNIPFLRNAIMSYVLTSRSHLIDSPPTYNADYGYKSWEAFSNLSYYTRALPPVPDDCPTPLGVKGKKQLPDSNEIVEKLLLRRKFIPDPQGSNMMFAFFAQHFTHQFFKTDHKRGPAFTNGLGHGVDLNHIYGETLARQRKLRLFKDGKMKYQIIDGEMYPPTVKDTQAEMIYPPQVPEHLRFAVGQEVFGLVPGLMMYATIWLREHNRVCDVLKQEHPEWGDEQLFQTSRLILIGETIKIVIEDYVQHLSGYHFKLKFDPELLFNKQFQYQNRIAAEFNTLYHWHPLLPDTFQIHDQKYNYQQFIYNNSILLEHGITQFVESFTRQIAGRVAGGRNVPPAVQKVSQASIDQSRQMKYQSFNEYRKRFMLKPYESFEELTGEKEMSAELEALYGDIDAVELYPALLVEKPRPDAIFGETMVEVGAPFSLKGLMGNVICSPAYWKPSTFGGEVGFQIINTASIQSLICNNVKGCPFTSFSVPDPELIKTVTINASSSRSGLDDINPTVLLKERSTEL

[5] = Cytotoxicity against human MCF7 cells assessed as cell growth inhibition after 72 hrs by MTT assay; format: functional, cell-based; conditions: MCF7, 72 h
[6] = Cytotoxicity against human A549 cells assessed as cell growth inhibition after 72 hrs by MTT assay; format: functional, cell-based; conditions: A549, 72 h
[7] = Cytotoxicity against human HCT116 cells assessed as cell growth inhibition after 72 hrs by MTT assay; format: functional, cell-based; conditions: HCT-116, 72 h
[8] = Cytotoxicity against human LNCAP cells assessed as cell growth inhibition after 72 hrs by MTT assay; format: functional, cell-based
[9] = Cytotoxicity against African green monkey Vero cells assessed as cell growth inhibition after 72 hrs by MTT assay; format: toxicity, cell-based; conditions: African green monkey (Chlorocebus sabaeus)
Histone deacetylase 2 [10] = target: T1, Histone deacetylase 2; test: Inhibition of HDAC2 (unknown origin) at 10 uM after 24 hrs by SAMDI mass spectroscopic analysis
[11] = Cytotoxicity against human DU145 cells assessed as cell growth inhibition after 72 hrs by MTT assay; format: functional, cell-based; conditions: DU-145, 72 h

Histone deacetylase 1, sequence (Q13547 whole entry): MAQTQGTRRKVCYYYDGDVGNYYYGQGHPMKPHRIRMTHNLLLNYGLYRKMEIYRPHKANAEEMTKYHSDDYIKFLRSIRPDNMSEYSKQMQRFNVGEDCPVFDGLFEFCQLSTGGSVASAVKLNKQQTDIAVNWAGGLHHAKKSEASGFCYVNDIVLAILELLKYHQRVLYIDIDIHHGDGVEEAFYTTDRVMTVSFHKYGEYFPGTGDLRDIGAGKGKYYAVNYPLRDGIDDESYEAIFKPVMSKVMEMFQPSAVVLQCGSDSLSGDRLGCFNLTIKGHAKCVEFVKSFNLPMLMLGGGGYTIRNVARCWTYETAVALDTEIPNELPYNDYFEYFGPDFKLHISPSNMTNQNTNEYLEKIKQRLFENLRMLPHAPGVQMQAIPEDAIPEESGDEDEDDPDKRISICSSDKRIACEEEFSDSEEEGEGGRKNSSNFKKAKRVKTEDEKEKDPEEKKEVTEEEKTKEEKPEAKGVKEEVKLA

| Structure (SMILES) | IC50 (Histone deacetylase 1) [nM] | IC50 (Histone deacetylase 2 [1]) [nM] | IC50 (Histone deacetylase 3) [nM] | IC50 [2] [nM] | IC50 (Histone deacetylase 8) [nM] | inhibition [3] [%] | inhibition [4] [%] | IC50 [5] [nM] | IC50 [6] [nM] | IC50 [7] [nM] | IC50 [8] [nM] | IC50 at 72 h [9] [nM] | inhibition (Histone deacetylase 2 [10]) [%] | IC50 [11] [nM] |
| --- | --- | --- | --- | --- | --- | --- | --- | --- | --- | --- | --- | --- | --- | --- |
| Cc1ccc(-c2cc(C(=O)NCCCCCCC(=O)NO)nn2-c2ccc(S(N)(=O)=O)cc2)cc1 | 208 | 294 | 333 | 83 | 520 | 26.4 | 71.1 | > 100000 | > 100000 | 25000 | > 20000 | > 100000 |  |  |
| COc1ccc2c(c1)c(CC(=O)NCCCCCCCC(=O)NO)c(C)n2C(=O)c1ccc(Cl)cc1 | 1760 |  | 283 | 50 | 707 | 42.8 | 96.2 | 25100 |  | 24800 | 6460 | 34700 | 43 | > 20000 |
| COC(=O)Cc1c(C)n(Cc2ccc(-c3cn(CCCCCC(=O)NO)nn3)cc2)c2ccc(OC)cc12 | 778 | 1360 | 224 | 6830 | 672 |  | 11.5 | 14200 |  | 9310 | > 20000 | 37800 |  |  |
| Cc1ccc(-c2cc(C(F)(F)F)nn2-c2ccc(S(=O)(=O)NCCCCCC(=O)NO)cc2)cc1 | 1870 | 2060 | 1020 | 76 | 226 | 16.2 | 97.7 | 7770 | 10400 | 8740 | 8880 | 6830 |  |  |
| Cc1ccc(-c2cc(C(=O)NCCCCCCCC(=O)NO)nn2-c2ccc(S(N)(=O)=O)cc2)cc1 | 60 | 32 | 33 | 183 | 697 |  | 66.9 | 59500 | 34100 | 7120 | > 20000 | 12100 |  |  |
